From patent publication US20090148883A1, “BIOMARKER FOR ASSESSING RESPONSE TO FMS TREATMENT” (priority 2007, published 2009)
Several values for one entry are separate records, joined by “and”; a condition that tells them apart may be missing. Equal entries are not always repeated.

Key:
CSF-1 [1] = test: Plasma CSF-1 after single ascending oral doses in healthy male subjects (Human CSF-1 ELISA); assay type: in vivo; settings: individual subjects (placebo subjects not identified); for Plasma CSF-1 Fold Change from Baseline: 1200 mg single oral dose cohort
Protocol: The safety and tolerability of single ascending, oral doses of COMPOUND 1 in healthy male subjects was assessed. Blood samples were collected on Day 1 predose and at 2, 4, 8, 12, 24 and 48 hours postdose and assessed for biomarker. Analysis of the biomarker was performed for all subjects receiving at least one dose of COMPOUND 1 or placebo as set forth in Table 5.
4 mL venous blood samples were collected on Day 1, within 60 minutes (predose), 2, 4, 8, 12, 24, and 48 hours postdose and 3 mL on Day 1 predose, 2 and 8 hours postdose for assessment of the effect of COMPOUND 1 on plasma CSF-1.
Plasma CSF-1 levels were measured using R&D Systems Human CSF-1 ELISA. Samples were diluted 1:5 for assay. Assay range for standards is 31-2000 pg/mL. Maximum measurable plasma concentration is ˜10000 pg/ml. Current maximum measured concentration ˜4000 pg/ml.

[2] = system: bone marrow derived macrophages (BMDM); test: Clearance of CSF-1 by bone marrow derived macrophages in vitro (CSF-1 ELISA of conditioned media); assay type: cell-based, mouse; settings: for Reduction of rate of CSF-1 consumption: slopes through 4.9 hours
Protocol: COMPOUND 1 was provided as a 10 mM stock in dimethyl sulfoxide (DMSO).Recombinant mouse CSF-1 (416 mL 050) and mouse CSF-1 ELISA (MNC00) were both purchased from R&D Systems Inc., (Minneapolis, Minn.). Mouse bone marrow-derived macrophage (BMDM) were prepared and were plated into 12 well plates in the presence of culture media (αMEM containing 10% FCS and glutamine PenStrep) and 25 ng/mL CSF-1 for three days until approximately 60% confluency was achieved. The cultures were then washed twice with media without CSF-1, and cultured for 2 hrs in the absence of CSF-1 to allow the macrophages to consume CSF-1 that may have been residual to the wells. The cultures were next adjusted to contain CSF-1 and COMPOUND 1 as indicated in Table 1 (Experimental Design) and incubation was continued at 37° C. and 5% CO2. […] At timed-intervals (0, 1.1, 2.3, 4.9, 10.3, 19.9, 29, and 44 hours) 50 μl of conditioned media were removed from each well and saved under refrigeration. After harvest of the last time point, all samples were subjected to CSF-1 ELISA. CSF-1 concentrations (pg/mL) vs time were plotted for each well using linear linear and log linear formats. Consumption was log linear over the first 4.9-hours. Excel was used to calculate a best fit linear equation describing CSF-1 consumption for each well through 4.9 hours and slopes were used to determine the relative rates of consumption.

[3] = system: ED-1 positive macrophages in the uterus; test: Macrophage content of the uterus (ED-1 immunohistochemistry) in rats, Example 2; assay type: in vivo, rat; settings: highest dose tested (COMPOUND 2 15 mg/kg, COMPOUND 1 40 mg/kg po bid), Day 5; highly variable
Protocol: (§1) Groups of female Sprague Dawley rats (n=5) were orally administered 5 or 15 mg/kg of COMPOUND 2 or 40 mg/kg COMPOUND 1 twice per day for 5 consecutive days to characterize compound tolerability. Additional groups of rats, treated with vehicle or 40 mg/kg COMPOUND 1, were terminated one hour after the a.m. dose on Days 1 and 3 for interim analysis of various parameters. Post-mortem analysis of all treated animals included standard necropsy with liver histology evaluation as well as standard hematology and serology. None of the animals were found dead or were euthanized (moribund) prior to scheduled termination. None of the treatments affected body weight or the organ:body weight ratio of selected organs (i.e., liver, thymus, spleen & uterus). […] Both compounds, at the highest dose tested, decreased the number of macrophages in the uterus (up to ˜60% for COMPOUND 2) on Day 5 however, this parameter was highly variable.
(§2) On Days 1 & 3, one hour after a.m. dose, five rats from Groups 1 and 4 were euthanized using CO2 asphyxiation and exsanguinated via cardiac puncture. Blood samples (˜500 μL) were transferred to separate ethylenediaminetetraacetic acid (EDTA) microtainers and a complete blood count (CBC) was conducted using the Advia 120 Hematology System (Bayer Diagnostics, Tarrytown, N.Y.). Additional blood samples were transferred to separate microtainers (with or without anticoagulant) and processed for biomarker (i.e., MCSF-1) and serologic (i.e., AST/ALT) analysis. The liver and thymus were weighed and discarded. The spleens were weighed and zap-frozen and the uteri (without ovaries attached) were weighed and fixed in 10% buffered formalin. The macrophage content of the uterus was determined immunohistochemically using a macrophage-specific (ED-1) antibody.
On Day 5, rats were euthanized using carbon dioxide and exsanguinated via cardiac puncture. […]
Differences between treated and control groups were analyzed statistically by ANOVA with a Dunnett's Multiple Comparison post-test. […]

[4] = Tolerability in rats, Example 2; assay type: in vivo; settings: 5 or 15 mg/kg COMPOUND 2 or 40 mg/kg COMPOUND 1, po bid, 5 consecutive days
Protocol: as §1, with “variable. […]” for “variable.”
On Days 1 & 3, one hour after a.m. dose, five rats from Groups 1 and 4 were euthanized using CO2 asphyxiation and exsanguinated via cardiac puncture. […] The macrophage content of the uterus was determined immunohistochemically using a macrophage-specific (ED-1) antibody. […]

BMDM = test: CSF-1-induced BMDM proliferation; assay type: cell-based; settings: Mus musculus, data not shown, read-out: IC50 for inhibition of CSF-1-induced BMDM proliferation
CSF-1 [5] = test: Plasma CSF-1 biomarker in rats, Example 2 (po bid 5 days); assay type: in vivo, rat; settings: 40 mg/kg po bid, control ~75 pg/ml
Protocol: as §1
On Day 0, the rats were ear tagged, randomized into the treatment groups (Groups 1 & 4: n=15, Groups 2 & 3: n=5), weighed and treated (po, bid) with either vehicle (20% HPbCD) or the test articles as delineated in Table 2 (Allocation of Treatment Groups).
as §2
On Day 5, rats were euthanized using carbon dioxide and exsanguinated via cardiac puncture. Blood samples (˜500 μL) were collected and processed as described above for CBC, biomarker analysis and serology. The liver, spleen, thymus and uterus (without ovaries attached) were isolated, weighed and fixed in buffered formalin. The right knee with femur attached was isolated, trimmed and fixed in formalin. The left femur was isolated for determination of bone marrow cell counts. Liver histopathology was also conducted.
Differences between treated and control groups were analyzed statistically by ANOVA with a Dunnett's Multiple Comparison post-test. (p value; *:<0.05, **:<0.01).

For `CN(C)CC(=O)N1CCC(c2ccc(NC(=O)c3nc(C#N)c[nH]3)c(C3=CCCCC3)c2)CC1.Cl` [COMPOUND 1], the “Plasma CSF-1 Fold Change from Time 0” value (CSF-1 [1]; 150 mg single oral dose cohort, 2 hours postdose) was 1.8 fold (2×) and 2.5 fold and 2.0 fold and 0.8 fold (2×) and 0.9 fold, the “Plasma CSF-1 Fold Change from Time 0” value (CSF-1 [1]; 150 mg single oral dose cohort, 4 hours postdose) was 2.2 fold and 1.8 fold and 1.9 fold (2×) and 0.8 fold (2×) and 0.9 fold and the “Plasma CSF-1 Fold Change from Time 0” value (CSF-1 [1]; 150 mg single oral dose cohort, 8 hours postdose) was 1.4 fold and 2.5 fold and 1.6 fold and 1.0 fold and 0.8 fold and 1.7 fold and 0.7 fold. For the same molecule, the “Plasma CSF-1 Fold Change from Time 0” value (CSF-1 [1]; 150 mg single oral dose cohort, 12 hours postdose) was 1.5 fold and 1.6 fold and 2.4 fold and 0.9 fold and 0.8 fold and 1.7 fold and 0.7 fold, the “Plasma CSF-1 Fold Change from Time 0” value (CSF-1 [1]; 150 mg single oral dose cohort, 24 hours postdose) was 1.4 fold and 1.3 fold and 1.2 fold and 2.0 fold and 0.9 fold and 1.8 fold and 0.7 fold and the “Plasma CSF-1 Fold Change from Time 0” value (CSF-1 [1]; 150 mg single oral dose cohort, 48 hours postdose) was 1.2 fold and 1.1 fold and 1.0 fold and 0.8 fold and 1.8 fold and 1.4 fold and 0.6 fold. For the same molecule, the “Plasma CSF-1 Fold Change from Time 0” value (CSF-1 [1]; 300 mg single oral dose cohort, 2 hours postdose) was 4.6 fold and 0.8 fold and 3.3 fold and 2.7 fold and 0.9 fold and 5.2 fold and 3.4 fold and 1.8 fold, the “Plasma CSF-1 Fold Change from Time 0” value (CSF-1 [1]; 300 mg single oral dose cohort, 4 hours postdose) was 4.4 fold (2×) and 1.4 fold and 3.0 fold and 0.7 fold and 6.8 fold and 4.5 fold and 2.6 fold and the “Plasma CSF-1 Fold Change from Time 0” value (CSF-1 [1]; 300 mg single oral dose cohort, 8 hours postdose) was 3.8 fold and 0.9 fold and 3.4 fold and 3.0 fold and 1.5 fold and 6.4 fold and 4.1 fold and 1.9 fold. For the same molecule, the “Plasma CSF-1 Fold Change from Time 0” value (CSF-1 [1]; 300 mg single oral dose cohort, 12 hours postdose) was 2.6 fold and 0.8 fold and 2.2 fold and 3.8 fold and 0.9 fold and 4.5 fold and 3.0 fold and 1.4 fold, the “Plasma CSF-1 Fold Change from Time 0” value (CSF-1 [1]; 300 mg single oral dose cohort, 24 hours postdose) was 1.9 fold and 0.9 fold and 1.5 fold (3×) and 1.7 fold and 2.1 fold and 1.1 fold and the “Plasma CSF-1 Fold Change from Time 0” value (CSF-1 [1]; 300 mg single oral dose cohort, 48 hours postdose) was 2.3 fold and 1.0 fold and 1.4 fold (2×) and 0.9 fold and 2.2 fold and 1.2 fold and 0.8 fold. The “Plasma CSF-1 Fold Change from Time 0” value (CSF-1 [1]; 600 mg single oral dose cohort, 2 hours postdose) was 7.5 fold and 0.7 fold and 2.9 fold and 5.0 fold and 0.9 fold and 6.0 fold and 4.8 fold and 2.3 fold, the “Plasma CSF-1 Fold Change from Time 0” value (CSF-1 [1]; 600 mg single oral dose cohort, 4 hours postdose) was 8.7 fold and 1.2 fold and the “Plasma CSF-1 Fold Change from Baseline” value (CSF-1 [1]; 2 hours postdose) was 5.4 fold and 4.9 fold and 0.8 fold and 4.4 fold (2×) and 6.8 fold and 0.5 fold and 3.5 fold. The “Plasma CSF-1 Fold Change from Baseline” value (CSF-1 [1]; 4 hours postdose) was 8.9 fold and 8.4 fold and 1.0 fold and 7.6 fold and 9.5 fold and 5.9 fold and 0.4 fold and 5.3 fold, the “Plasma CSF-1 Fold Change from Baseline” value (CSF-1 [1]; 8 hours postdose) was 9.9 fold and 9.8 fold and 1.0 fold and 11.3 fold and 13.4 fold and 6.9 fold and 0.4 fold and 7.8 fold and the “Plasma CSF-1 Fold Change from Baseline” value (CSF-1 [1]; 12 hours postdose) was 9.2 fold and 5.2 fold and 2.1 fold and 10.5 fold and 8.8 fold and 5.8 fold and 0.4 fold and 6.0 fold. For the same molecule, the “Plasma CSF-1 Fold Change from Baseline” value (CSF-1 [1]; 24 hours postdose) was 4.7 fold and 1.4 fold and 1.0 fold and 6.1 fold and 2.9 fold and 3.2 fold and 0.4 fold and 1.8 fold, the “Plasma CSF-1 Fold Change from Baseline” value (CSF-1 [1]; 48 hours postdose) was 2.7 fold (2×) and 1.0 fold and 0.9 fold and 3.3 fold and 2.4 fold and 0.6 fold and 1.6 fold and the “Reduction of rate of CSF-1 consumption” value ([2]; 0.001 μM, 1 ng/mL CSF-1) was 16%. For the same molecule, the “Reduction of rate of CSF-1 consumption” value ([2]; 0.01 μM, 1 ng/mL CSF-1) was 56%, the “Reduction of rate of CSF-1 consumption” value ([2]; 0.1 μM, 1 ng/mL CSF-1) was 64% and the “Portion of CSF-1 clearance not inhibited” value ([2]; 1 uM) was about 36%. For the same molecule, the “Reduction of rate of CSF-1 consumption” value ([2]; 1 μM, 1 ng/mL CSF-1) was 64%, the IC50 ([2]; Mus musculus, BMDM, 1 ng/mL CSF-1, read-out: Half-maximal inhibition of CSF-1 consumption) was 1 to 10 nM and the “Portion of CSF-1 clearance that can be inhibited” value ([2]; based on consumption rates, plateau) was about 64%. The “Effect on macrophage content of the uterus” value [3] was “decreased the macrophage content of the uterus”, the “Effect on appearance, behavior, body weight or organ:body weight ratio (liver, spleen, thymus)” value [4] was “did not have an observable effect” and the IC50 (BMDM) was 2.6 nM. The “Mean plasma CSF-1 level” value (CSF-1 [5]; Day 1) was 112 pg/mL, the “Mean plasma CSF-1 level” value (CSF-1 [5]; Day 3) was 314 pg/mL and the “Mean plasma CSF-1 level” value (CSF-1 [5]; Day 5) was 526 pg/mL.
